According to paper PMC9841532, “Exploring the Effect of Halogenation in a Series of Potent and Selective A2B Adenosine Receptor Antagonists” (Journal of Medicinal Chemistry, 2022):

Experiments:
hA1AR = biological target: T1, hA1AR (Homo sapiens, UniProt P30542); experiment: Radioligand binding competition, [3H]DPCPX, membranes from CHO-A1 cells; conditions: 1 μM, [3H]DPCPX, human CHO cells, n = 2
T1 sequence (P30542 1-326): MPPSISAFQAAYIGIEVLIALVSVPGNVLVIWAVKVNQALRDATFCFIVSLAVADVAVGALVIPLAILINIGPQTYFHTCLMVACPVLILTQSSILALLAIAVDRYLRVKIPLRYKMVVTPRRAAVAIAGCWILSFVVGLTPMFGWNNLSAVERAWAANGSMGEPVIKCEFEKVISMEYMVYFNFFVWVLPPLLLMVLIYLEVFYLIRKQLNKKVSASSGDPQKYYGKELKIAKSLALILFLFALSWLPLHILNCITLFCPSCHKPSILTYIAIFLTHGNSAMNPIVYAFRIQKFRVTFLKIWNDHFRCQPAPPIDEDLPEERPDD
Procedure: (§1) All ligands reported in Tables 1–5 were obtained and tested as racemic mixtures. The whole set was evaluated in silico with a combination of a Rdkit[37] PAINS filter and Instant JChem from Chemaxon (https://www.chemaxon.com), to rule out the possibility that these ligands can be promiscuous pan-assay interference compounds (PAINS) and to assess their bioavailability, respectively. […] The stereoisomers of selected compounds were obtained by chiral resolution and tested at the four human AR subtypes in their enantiopure forms (Table 6).
(§2) A brief description is given below. […] Non-specific binding was determined in the presence of 10 μM R-PIA. The reaction mixture was incubated at 25 °C for 60 min. […] The reaction mixture was incubated at 25 °C for 30 min. […] The reaction mixture was incubated at 25 °C for 30 min. […] Non-specific binding was determined in the presence of 100 μM R-PIA. […] After the incubation time, membranes were washed and filtered and radioactivity was detected in a MicroBeta TriLux reader (PerkinElmer).

hA2AAR = biological target: T2, hA2AAR (Homo sapiens, UniProt P29274); experiment: Radioligand binding competition, [3H]ZM241385, membranes from HeLa-A2A cells; conditions: 1 μM, [3H]ZM241385, human HeLa cells, n = 2
T2 construct: expressed in transfected cells; host or cells: HeLa (HeLa-A2A) cell membranes
T2 sequence (P29274 whole entry): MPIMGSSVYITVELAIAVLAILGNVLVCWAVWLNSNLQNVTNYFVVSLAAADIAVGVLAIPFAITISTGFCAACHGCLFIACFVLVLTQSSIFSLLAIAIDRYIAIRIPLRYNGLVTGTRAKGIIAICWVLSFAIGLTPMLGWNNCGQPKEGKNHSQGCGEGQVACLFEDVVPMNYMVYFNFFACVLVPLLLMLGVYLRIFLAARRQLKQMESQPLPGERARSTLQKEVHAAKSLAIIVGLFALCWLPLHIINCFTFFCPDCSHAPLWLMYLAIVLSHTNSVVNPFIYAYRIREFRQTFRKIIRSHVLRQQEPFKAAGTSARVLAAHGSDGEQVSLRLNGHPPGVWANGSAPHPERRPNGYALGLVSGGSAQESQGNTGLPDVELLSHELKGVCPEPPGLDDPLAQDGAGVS
Procedure: as §1, §2

hA2BAR = biological target: T3, hA2BAR (Homo sapiens, UniProt P29275); experiment: Radioligand binding competition, [3H]DPCPX, membranes from HEK-293-A2B cells; parameters: Exp. dG: unit not given here; conditions: for Ki: read-out: Ki hA2B; for % at 1 μM hA2B (percentage displacement of specific binding): [3H]DPCPX, human HEK-293 cells, n = 2
T3 construct: host or cells: HEK-293 (HEK-293-A2B) cell membranes
T3 sequence (P29275 1-332): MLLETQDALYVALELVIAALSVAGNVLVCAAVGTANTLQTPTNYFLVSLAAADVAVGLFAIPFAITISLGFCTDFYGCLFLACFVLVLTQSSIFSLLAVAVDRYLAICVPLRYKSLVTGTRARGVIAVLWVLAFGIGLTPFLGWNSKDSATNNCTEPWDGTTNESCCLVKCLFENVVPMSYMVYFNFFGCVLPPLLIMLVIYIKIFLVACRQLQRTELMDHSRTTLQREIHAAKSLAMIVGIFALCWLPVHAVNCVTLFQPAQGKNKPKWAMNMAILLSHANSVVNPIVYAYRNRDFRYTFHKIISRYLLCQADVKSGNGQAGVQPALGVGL
Procedure: as §1, §2

hA3AR = biological target: T4, hA3AR (Homo sapiens, UniProt P0DMS8); experiment: Radioligand binding competition, [3H]NECA, membranes from HeLa-A3 cells; conditions: for % at 1 μM hA3 (percentage displacement of specific binding): [3H]NECA, human HeLa cells, n = 2
T4 construct: expressed in transfected cells; host or cells: HeLa (HeLa-A3) cell membranes
T4 sequence (P0DMS8 1-318): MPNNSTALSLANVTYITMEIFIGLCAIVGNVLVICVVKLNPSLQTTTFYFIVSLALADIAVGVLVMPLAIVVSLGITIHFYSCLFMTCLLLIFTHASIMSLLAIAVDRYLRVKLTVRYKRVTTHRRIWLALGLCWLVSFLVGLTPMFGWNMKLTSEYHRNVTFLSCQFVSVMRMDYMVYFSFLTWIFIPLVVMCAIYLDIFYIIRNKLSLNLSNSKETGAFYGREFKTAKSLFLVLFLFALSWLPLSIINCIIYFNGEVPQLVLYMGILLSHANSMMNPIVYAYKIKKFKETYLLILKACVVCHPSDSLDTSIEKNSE
Procedure: as §1, §2

[1] = displacement of specific [3H]DPCPX binding in human HEK-293 cells, n = 3

| Compound | % at 1 μM hA1 (percentage displacement of specific binding) (hA1AR) [%] | % at 1 μM hA2A (percentage displacement of specific binding) (hA2AAR) [%] | Ki (hA2BAR; [1]) [nM] | % at 1 μM hA3 (percentage displacement of specific binding) (hA3AR) [%] | % at 1 μM hA2B (percentage displacement of specific binding) (hA2BAR) [%] | Ki hA2B (hA2BAR; [1]) | Exp. dG (hA2BAR; experimental binding free energy, Supplementary Table S3, unit not given (errors in kcal/mol)) | Ki (hA3AR; displacement of specific [3H]NECA binding in human HeLa cells, n = 3, read-out: Ki hA3) [nM] |
| --- | --- | --- | --- | --- | --- | --- | --- | --- |
| CCOC(=O)C1=C(C)Nc2nc3cc(F)c(F)cc3n2C1c1ccco1 (stereo not shown) [14a] | 1 | 2 | 44.1 ± 1.7 | 2 | – | – | – | – |
| CCOC(=O)C1=C(C)Nc2nc3cc(F)c(F)cc3n2C1c1ccoc1 (stereo not shown) [14c] | 22 | 36 | 28.2 ± 0.8 | 17 | – | – | – | – |
| CC1=C(C(=O)OC(C)C)C(c2ccoc2)n2c(nc3cc(F)c(F)cc32)N1 (stereo not shown) [14d] | 17 | 16 | 52.9 ± 1.5 | 20 | – | – | – | – |
| CCOC(=O)C1=C(C)Nc2nc3cc(F)c(F)cc3n2C1c1cccs1 (stereo not shown) [14e] | 2 | 3 | – | 5 | 25 | – | – | – |
| CC1=C(C(=O)OC(C)C)C(c2cccs2)n2c(nc3cc(F)c(F)cc32)N1 (stereo not shown) [14f] | 1 | 1 | – | 10 | 1 | – | – | – |
| CCOC(=O)C1=C(C)Nc2nc3cc(F)c(F)cc3n2C1c1ccsc1 (stereo not shown) [14g] | 1 | 1 | 519 ± 7 | 5 | – | – | – | – |
| CC1=C(C(=O)OC(C)C)C(c2ccsc2)n2c(nc3cc(F)c(F)cc32)N1 (stereo not shown) [14h] | 1 | 3 | – | 4 | 43 | – | – | – |
| CCOC(=O)C1=C(C)Nc2nc3cc(Cl)c(Cl)cc3n2C1c1ccco1 (stereo not shown) [14i] | 2 | 5 | – | 1 | 9 | – | – | – |
| CC1=C(C(=O)OC(C)C)C(c2ccco2)n2c(nc3cc(Cl)c(Cl)cc32)N1 (stereo not shown) [14j] | 43 | 12 | 117 ± 5 | 7 | – | – | – | – |
| CCOC(=O)C1=C(C)Nc2nc3cc(Cl)c(Cl)cc3n2C1c1ccoc1 (stereo not shown) [14k] | 33 | 34 | 54.7 ± 3.2 | 6 | – | – | – | – |
| CC1=C(C(=O)OC(C)C)C(c2ccoc2)n2c(nc3cc(Cl)c(Cl)cc32)N1 (stereo not shown) [14l] | 4 | 31 | – | 8 | 36 | – | – | – |
| CCOC(=O)C1=C(C)Nc2nc3cc(Cl)c(Cl)cc3n2C1c1cccs1 (stereo not shown) [14m] | 2 | 1 | – | 11 | 9 | – | – | – |
| CC1=C(C(=O)OC(C)C)C(c2cccs2)n2c(nc3cc(Cl)c(Cl)cc32)N1 (stereo not shown) [14n] | 1 | 4 | – | 9 | 1 | – | – | – |
| CCOC(=O)C1=C(C)Nc2nc3cc(Cl)c(Cl)cc3n2C1c1ccsc1 (stereo not shown) [14o] | 5 | 1 | – | 1 | 9 | – | – | – |
| CC1=C(C(=O)OC(C)C)C(c2ccsc2)n2c(nc3cc(Cl)c(Cl)cc32)N1 (stereo not shown) [14p] | 2 | 1 | 359 ± 4 | 6 | – | – | – | – |
| CCOC(=O)C1=C(C)Nc2nc3cc(Br)c(Br)cc3n2C1c1ccco1 (stereo not shown) [14q] | 1 | 17 | – | 2 | 37 | – | – | – |
| CC1=C(C(=O)OC(C)C)C(c2ccco2)n2c(nc3cc(Br)c(Br)cc32)N1 (stereo not shown) [14r] | 11 | 28 | 62.6 ± 1.9 | 21 | – | – | – | – |
| CCOC(=O)C1=C(C)Nc2nc3cc(Br)c(Br)cc3n2C1c1ccoc1 (stereo not shown) [14s] | 2 | 2 | – | 10 | 7 | – | – | – |
| CC1=C(C(=O)OC(C)C)C(c2ccoc2)n2c(nc3cc(Br)c(Br)cc32)N1 (stereo not shown) [14t] | 1 | 1 | – | 9 | 32 | – | – | – |
| CCOC(=O)C1=C(C)Nc2nc3cc(Br)c(Br)cc3n2C1c1cccs1 (stereo not shown) [14u] | 2 | 7 | – | 5 | 12 | – | – | – |
| CC1=C(C(=O)OC(C)C)C(c2cccs2)n2c(nc3cc(Br)c(Br)cc32)N1 (stereo not shown) [14v] | 1 | 1 | – | 3 | 9 | – | – | – |
| CCOC(=O)C1=C(C)Nc2nc3cc(Br)c(Br)cc3n2C1c1ccsc1 (stereo not shown) [14w] | 2 | 7 | – | 4 | 47 | – | – | – |
| CCOC(=O)C1=C(C)Nc2nc3cc(Br)ccc3n2[C@@H]1c1ccoc1 [(R)-16s] | 10 | – | 1.17 ± 0.1 | 14 | – | – | – | – |
| CC1=C(C(=O)OC(C)C)[C@@H](c2ccco2)n2c(nc3cc(F)ccc32)N1 [(S)-16b] | 26 | – | 0.94 ± 0.1 | 12 | – | sub-nanomolar | – | – |
| CC1=C(C(=O)OC(C)C)[C@@H](c2ccco2)n2c(nc3cc(Br)ccc32)N1 [(S)-16r] | 32 | – | 2.97 ± 0.4 | 6 | – | – | – | – |
| CC1=C(C(=O)OC(C)C)C(c2cocn2)n2c(nc3ccccc32)N1 (stereo not shown) [X, reference compound] | – | – | – | – | – | – | -10.04 | – |
| Nc1nc(NCCc2ccc(O)cc2)nc2nc(-c3ccco3)nn12 [ZM241385, 4-(2-[7-amino-2-(2-furyl)[1,2,4]triazolo[2,3-a][1,3,5]triazin-5-ylamino]ethyl)phenol, reference compound] | – | – | – | – | – | – | – | 863 ± 4 |
